Test results published in ChEMBL document CHEMBL1145392, “Natural feruloyl monoglyceride macrocycles as protecting factors against free-radical damage of lipidic membranes” (Bioorg Med Chem Lett, 2007).
Calls of active or inactive are those of the source.

How the values were obtained:
Format in all cases: functional
[1] = Hydrogen peroxide radical scavenging activity
[2] = Superoxide radical scavenging activity assessed as NBT reduction
Liver microsomes = test: Inhibition of lipid peroxidation activity in Wistar rat liver microsomes by TBRAS assay; details: Microsome

Measured: Activity

COc1cc(/C=C/C(=O)OCC2COC(=O)CCCCCCCCCCCCCCCCCCCCCCCO2)ccc1O (configuration not stated)
active: [1] | [2] | Liver microsomes

COc1cc(/C=C/C(=O)OCC2COC(=O)CCCCCCCCCCCCCCCCCCCCCCCCCCCCCO2)ccc1O (configuration not stated)
active: [1] | [2] | Liver microsomes

COc1cc(/C=C/C(=O)OCC2COC(=O)CCCCCCCCCCCCCCCCCCCCCCCCCCCCO2)ccc1O (configuration not stated)
active: [1] | [2] | Liver microsomes

COc1cc(/C=C/C(=O)OCC2COC(=O)CCCCCCCCCCCCCCCCCCCCCCCCCCO2)ccc1O (configuration not stated)
active: [1] | [2] | Liver microsomes

COc1cc(/C=C\C(=O)OCC2COC(=O)CCCCCCCCCCCCCCCCCCCCCCCCO2)ccc1O (configuration not stated)
active: [1] | [2] | Liver microsomes

COc1cc(/C=C/C(=O)OCC2COC(=O)CCCCCCCCCCCCCCCCCCCCCCCCO2)ccc1O (configuration not stated)
active: [1] | [2] | Liver microsomes

COc1cc(/C=C/C(=O)OCC2COC(=O)CCCCCCCCCCCCCCCCCCO2)ccc1O (configuration not stated)
active: [1] | [2] | Liver microsomes

COc1cc(/C=C/C(=O)OCC2COC(=O)CCCCCCCCCCCCCCCCCCCCO2)ccc1O (configuration not stated)
active: [1] | [2] | Liver microsomes

COc1cc(/C=C\C(=O)OCC2COC(=O)CCCCCCCCCCCCCCCCCCCCCCCCCCCCCCCCCO2)ccc1O (configuration not stated)
active: [1] | [2] | Liver microsomes
